Test results published in patent US10933053B2, “Treating infections with ceftolozane/tazobactam in subjects having impaired renal function” (MERCK SHARP & DOHME CORP., priority 2013, dated 2021).
“And” between values parts separate entries of the source, which are not always exact repeats. Equal entries are not always repeated. Where two headings read alike, the source gives them in different places.

Experiments:
clinical = conditions: human, in vivo, t1/2, geometric mean
Experimental: The extent of ceftolozane exposure increases with decreasing renal function. […] In subjects with moderate renal impairment, exposure approximately doubles relative to that in subjects with normal renal function.
For tazobactam, this estimated exposure from a dose of 125 mg in subjects with severe renal impairment not on hemodialysis is similar to that achieved with 500 mg tazobactam in subjects with normal renal function (23.8 μg·h/mL).

[1] = set-up: species or system human
Excerpt: Phoenix™ Non Linear Mixed Effects (NLME) version 1.2 (Pharsight Corporation, Certara USA, Inc., 9666 Olive Blvd., Suite 425, St. Louis, Mo. 63132 USA) with the extended least squares first order conditional estimation (FOCE-ELS) was used for population PK modeling and SAS® 9.3 (SAS Institute Inc., 100 SAS Campus Drive, Cary, N.C. 27513-2414, USA) with finite element method (FEM) was used for Monte Carlo simulation. R (2.15.0) and SAS® 9.3 were used for data management, statistical summaries and table/figures generation.
No other structural model was further tested unless necessary. Ceftolozane or tazobactam plasma concentration-time data with hemodialysis were then included and hemodialysis was tested as a covariate effect on both clearance and volume of distribution for the central compartment. The final model was selected based on the stability of the model, reliability and interpretability of the parameter estimates and the goodness-of-fit plots.
The population PK model for ceftolozane was developed via a 2-step process. First, the ceftolozane plasma concentrations without hemodialysis (first dose) were modeled and best described with a 2-compartment disposition model (FIG. 15) plus a proportional residual error model. The between-subject variability was reliably estimable on all four PK parameters CL, Vc, CL2 and V2. When the ceftolozane plasma concentrations following the second dose with hemodialysis were included, the above model, with the addition of a dichotomous covariate and a between-subject variability for the effect of hemodialysis, was the best to fit the combined data.
Similar to ceftolozane, tazobactam plasma concentrations without hemodialysis (first dose) were first modeled and well described with a 2-compartment disposition model (FIG. 15) plus a proportional residual error model. The between-subject variability was reliably estimable on all four PK parameters CL, Vc, CL2 and V2. When the tazobactam plasma concentrations following the second dose were included, the model with hemodialysis evaluated as a dichotomous covariate with a between-subject variability was the best to fit all the combined data. […] (17)
Ceftolozane/tazobactam plasma concentrations collected from 6 patients with ESRD following a single dose without hemodialysis and a second dose with hemodialysis were used to develop a population PK model (Phoenix™ Non Linear Mixed Effects [NLME]).
A 2-compartment disposition model was used to fit the ceftolozane or tazobactam plasma concentration-time data without hemodialysis and to test the between-subject variability and residual variability. Ceftolozane or tazobactam plasma concentration-time data with hemodialysis were then included and hemodialysis was tested as a covariate effect on both clearance and volume of distribution for the central compartment.

[2] = Binding to human plasma proteins; type: in vitro ADME; conditions: human, plasma; value used in Monte Carlo simulation; read-out: unbound fraction (Fu)

Row | SMILES | half-life (clinical) | BSV % (RSE %) of CL ([1]; ESRD) | BSV % (RSE %) of V2 ([1]; ESRD) | BSV % (RSE %) of Vc ([1]; ESRD) | BSV % (RSE %) of log-scale coefficient of hemodialysis on CL ([1]; ESRD) | Log-scale coefficient of hemodialysis on CL, mean estimate ([1]; ESRD) | Log-scale coefficient of hemodialysis on Vc, mean estimate ([1]; ESRD) | increase of CL by HD ([1]; ESRD) | increase of Vc by HD ([1]; ESRD) | V2, volume of distribution for peripheral compartment, mean estimate ([1]; human) | apparent terminal half-life ([1]; human) | apparent volume of distribution for the central compartment with hemodialysis ([1]; human) | clearance with hemodialysis ([1]; human) | half-life ([1]; human) | fraction unbound [2] | BSV % (RSE %) of CL2 ([1]; ESRD) | BSV % (RSE %) of log-scale coefficient of hemodialysis on Vc ([1]; ESRD) | Vc, volume of distribution for central compartment, mean estimate ([1]; human)
1 | C[C@]1(Cn2ccnn2)[C@H](C(=O)O)N2C(=O)C[C@H]2S1(=O)=O [Tazobactam, tazobactam] | 1.78 h | 142 (29.3) % | 24.3 (39.8) % | 398 (34.3) % | 29 (31.4) % | 1.89 and 1.9 | 0.434 and 0.43 | 6.6 fold | 1.5 fold | 6.55 | about 4 hours | about 16 L | about 20 L/hr | about 1 hours | 0.7 | – | – | –
2 | Cn1c(N)c(NC(=O)NCCN)c[n+]1CC1=C(C(=O)O)N2C(=O)[C@@H](NC(=O)/C(=N\OC(C)(C)C(=O)O)c3nsc(N)n3)[C@H]2SC1 [Ceftolozane, (6R,7R)-3-[(5-amino-4-{[(2-aminoethyl)carbamoyl]amino}-1-methyl-1H-pyrazol-2-ium-2-yl)methyl]-7-({(2Z)-2-(5-amino-1,2,4-thiadiazol-3-yl)-2-[(1-carboxy-1-methylethoxy)imino]acetyl}amino)-8-oxo-5-thia-1-azabicyclo[4.2.0]oct-2-ene-2-carboxylate] | 5.85 h | 52.2 (29.2) % | 48.4 (29.9) % | – | 69.6 (29.8) % | 4.09 and 4.1 | 1.54 and 1.5 | 60 fold | 4.7 fold | 11.8 | about 40 hours | about 28 L | about 20 L/hr | about 2 hours | 0.79 | 35.9 (41.9) % | 40.0 (34.7) % | 6 FIXED L
